One experiment relates to ferric iron accumulation. Kind of experiment: Perls' DAB stain for ferric iron in cerebellar folia and striatum. The format is in vivo, mice. To be noted: cerebellar folia and striatum of IRP2−/− animals on Tempo1 diet. On the procedure:
Diet: The mice were weaned 3-4 weeks after their birth. Immediately after weaning, mice were maintained on either a Tempo1-supplemented or control diet. In the Tempo1-supplemented diet, powdered Tempo1 was uniformly mixed with bacon-flavored mouse chow by a “cold press” technique (Bio-Serv, Frenchtown, N.J., USA) at a concentration of 10 mg/g of food. Bacon-flavored chow without Tempo1 was used as the control diet.
Perl's DAB iron staining: After dewaxing and rehydrating, paraffin-embeded tissue sections were stained in prewarmed staining solution (5% potassium ferrocyanide 15.0 ml, 5% hydrochloric acid 15.0 ml, 15 sec in micro oven) for 5 min. The sections were rinsed with distilled water and Tris-buffered saline pH7.4, then were stained with DAB staining solution (20 mg DAB, 50 μl 30% H2O2, 20 ml Tris-buffered saline pH 7.4) for 30 min at room temperature. After rinsing with distilled water, the sections were mounted with Crystal Mount mounting solution (Sigma) and were observed and taken pictures with Nikon Eclipse E600 fluorescence microscope.
Cerebellar folia and striatum of wild type and IRP2−/− mice that were maintained on a control diet or on a Tempo1-supplemented diet were analyzed for ferric iron accumulation using Perls' DAB stain. […]

A further experiment relates to IRP1. Nature of the experiment: Western blot of IRP1 protein in IRP2−/− embryonic fibroblasts. Type of experiment: cell-based, mouse. To be noted: 0.3 and 1.0 mM, 16 h. On the procedure:
(§1) Cells: Embryonic fibroblasts of 13-day old embryos were isolated from wild type, IRP1−/− mice and IRP2−/− mice as described in LaVaute et al. supra. Myc-tagged HEK 293 Tet-on cell line, in which IRP2 expression was inducible, was prepared and cultured as described Bourdon et al., Blood Cells Mol Dis, 31, 247-255 (2003). Erythroblasts were harvested from bone marrow and purified as described in Cooperman et al., Blood, 106, 1084-1091 (2005).
(§2) Western blotting and antibodies: Protein analysis was carried out as described in LaVaute et al., supra. Equal amounts of protein (20-40 μg/lane) were separated on 13% SDSPAGE and transferred to nitrocellulose membranes. The membrane was blocked with 5% non-fat milk, 0.1% Triton X-100 in PBS and probed at RT in the same blocking buffer. IRP1 antibody was prepared against purified hIRP1 and used at 1:5000 dilution. L-ferritin antibody was raised in rabbit from L-ferritin protein purified from mouse livers. […]
(§3) To study the effect of Tempo1 on the IRE-binding activity of IRP1, IRP2−/− embryonic fibroblasts that were maintained in culture supplemented with 0, 0.3 and 1.0 mM Tempo1, with or without ferric ammonium citrate (FAC), for 16 h. […] Quantification was performed with the IQMac (IRP1 activity) or NIH Image (protein levels) program. Error bars represent the standard deviation calculated from the results of two different sets of experiments.
Background: In western blotting, separated proteins are transferred to a membrane and probed.

For another experiment, the system named is TfR1. Nature of the experiment: Western blot of TfR1 in IRP2−/− embryonic fibroblasts. The format is cell-based, mouse. To be noted: 0.3 and 1.0 mM, 16 h, with or without FAC. How it is done:
as §1, §2, §3

`CC1(C)CC(O)CC(C)(C)N1[O]` [Tempo1]: in the experiment with ferric iron accumulation, the ferric iron staining result is listed as “decreased”. The IRP1 levels result in the experiment with IRP1 is recorded as “unchanged”. Besides, in the experiment on TfR1, the TfR1 levels entry is on record as “increased”.

Values taken from patent US20100179188A1, “NITROXIDE RADICAL AS TREATMENT FOR NEURODEGENERATION” (Office of Technology Transfer, NIH, priority 2007, published 2010).
